Assay [1] concerns MDA-MB-231. The assay can be described thus: Antiproliferative activity against triple-negative human MDA-MB-231 cells assessed as reduction in cell viability after 72 hrs by SRB assay. Type of assay: functional, cell-based. The conditions noted are these: MDA-MB-231, 72 h.
For assay [2], the system named is KB. The assay can be described thus: Antiproliferative activity against human KB cells assessed as reduction in cell viability after 72 hrs by SRB assay. Type of assay: functional, cell-based. A general note: Sulforhodamine B stains cellular protein and so reports cell mass.
The test system of assay [3] is A549. As to the kind of experiment: Antiproliferative activity against human A549 cells assessed as reduction in cell viability after 72 hrs by SRB assay. The class given is functional, cell-based. The note with it: A549, 72 h.
Assay [4] can be described thus: Antiproliferative activity against P-gp overexpressing human KBVIN cells assessed as reduction in cell viability after 72 hrs by SRB assay. The class given is functional.

Each structure is given as a SMILES string.

What is called IC50 is the midpoint of a concentration-inhibition curve.

For `COc1c(CC=C(C)C)c(O)c(Cc2c(O)c(CC=C(C)C)c(OC)c(C(C)=O)c2O)c(O)c1C(C)=O`, the IC50 in assay [1] stood at 5.9 µM; in assay [2], 5.5 µM; in assay [3] it was 6.4 µM; in assay [4], 5.5 µM.

For `COc1c(CC=C(C)C)c(O)c(C(CC(C)C)c2c(O)c(CC=C(C)C)c(OC)c(C(C)=O)c2O)c(O)c1C(C)=O`, the IC50 in assay [1] is > 10 µM; in assay [2] it was 7.6 µM; in assay [3], > 10 µM; in assay [4] it was 8.4 µM.

As for `COc1c(CC=C(C)C)c(O)c(C(CC(C)C)c2c(O)cc(O)c(C(C)=O)c2O)c(O)c1C(C)=O` (stereo not drawn), the IC50 in assay [1] was 5.8 µM; in assay [2], 5.2 µM; in assay [3], 4.9 µM; in assay [4], 5 µM.

Take `COc1c(CC=C(C)C)c(O)c(Cc2c(O)cc(O)c(C(C)=O)c2O)c(O)c1C(C)=O`: the IC50 in assay [1] was 6.9 µM; in assay [2], 5.2 µM; in assay [3], 5.6 µM; in assay [4], 5.1 µM.

As to `COc1c(CC=C(C)C)c(O)c(C(CC(C)C)c2c(O)c3c(c(C(C)=O)c2O)OC(C(C)(C)O)C3)c(O)c1C(C)=O` (racemic), the IC50 in assay [1], in assay [2], in assay [3] and in assay [4] was > 10 µM throughout.

Turning to `COc1c(CC=C(C)C)c(O)c(C(CC(C)C)c2c(O)c(C(C)=O)c(O)c3c2OC(C)(C)C(O)C3)c(O)c1C(C)=O` (racemic), the IC50 in assay [1], in assay [2], in assay [3] and in assay [4] was > 10 µM throughout.

As to `COc1c(CC=C(C)C)c(O)c(C(CC(C)C)c2c(O)c3c(c(C(C)=O)c2O)OC(C)(C)C(O)C3)c(O)c1C(C)=O` (racemic), the IC50 in assay [1], in assay [2], in assay [3] and in assay [4] was > 10 µM each time.

`COc1c(CC=C(C)C)c(O)c(C(CC(C)C)c2c(O)c3c(c(C(C)=O)c2O)OC(C)(C)C=C3)c(O)c1C(C)=O` (racemic): the IC50 in assay [1] came out at 5.4 µM; in assay [2] it was 4.9 µM; in assay [3], 5.9 µM; in assay [4] it was 4.3 µM.

In the case of `COc1c(CC=C(C)C)c(O)c(C(CC(C)C)c2c(O)c(C=O)c(O)c(C(C)=O)c2O)c(O)c1C(C)=O` (racemic), the IC50 in assay [1], in assay [2], in assay [3] and in assay [4] was > 10 µM each time.

Take `COc1c(CC=C(C)C)c(O)c(C(CC(C)C)c2c(O)c(CC=C(C)C)c(O)c(C(C)=O)c2O)c(O)c1C(C)=O` (racemic): the IC50 is 6.4 µM in assay [1], 4.9 µM in assay [2], 6.1 µM in assay [3] and 4.4 µM in assay [4].

`C=C(C)C(O)Cc1c(O)c(C(C)=O)c(O)c(C(CC(C)C)c2c(O)c(CC=C(C)C)c(OC)c(C(C)=O)c2O)c1O` (racemic) [ACROVESTENOL]: the IC50 was 10 µM in assay [1], 6 µM in assay [2], > 10 µM in assay [3] and 6.5 µM in assay [4].

In the case of `CC(=O)O[C@H]1C(=O)[C@@]2(C)[C@H]([C@H](OC(=O)c3ccccc3)[C@]3(O)C[C@H](OC(=O)[C@H](O)[C@@H](NC(=O)c4ccccc4)c4ccccc4)C(C)=C1C3(C)C)[C@]1(OC(C)=O)CO[C@@H]1C[C@@H]2O` [PACLITAXEL], the IC50 in assay [1] is 0.0107 µM; in assay [2] it was 0.0074 µM; in assay [3], 0.0063 µM; in assay [4], 4.53 µM.
